# Biological target: T1, full length human recombinant glucocorticoid receptor (Homo sapiens, UniProt P04150)
# T1 construct: partially purified full length human recombinant glucocorticoid receptor; purchased Panvera/Invitrogen PV4302
# T1 sequence (P04150 1-777): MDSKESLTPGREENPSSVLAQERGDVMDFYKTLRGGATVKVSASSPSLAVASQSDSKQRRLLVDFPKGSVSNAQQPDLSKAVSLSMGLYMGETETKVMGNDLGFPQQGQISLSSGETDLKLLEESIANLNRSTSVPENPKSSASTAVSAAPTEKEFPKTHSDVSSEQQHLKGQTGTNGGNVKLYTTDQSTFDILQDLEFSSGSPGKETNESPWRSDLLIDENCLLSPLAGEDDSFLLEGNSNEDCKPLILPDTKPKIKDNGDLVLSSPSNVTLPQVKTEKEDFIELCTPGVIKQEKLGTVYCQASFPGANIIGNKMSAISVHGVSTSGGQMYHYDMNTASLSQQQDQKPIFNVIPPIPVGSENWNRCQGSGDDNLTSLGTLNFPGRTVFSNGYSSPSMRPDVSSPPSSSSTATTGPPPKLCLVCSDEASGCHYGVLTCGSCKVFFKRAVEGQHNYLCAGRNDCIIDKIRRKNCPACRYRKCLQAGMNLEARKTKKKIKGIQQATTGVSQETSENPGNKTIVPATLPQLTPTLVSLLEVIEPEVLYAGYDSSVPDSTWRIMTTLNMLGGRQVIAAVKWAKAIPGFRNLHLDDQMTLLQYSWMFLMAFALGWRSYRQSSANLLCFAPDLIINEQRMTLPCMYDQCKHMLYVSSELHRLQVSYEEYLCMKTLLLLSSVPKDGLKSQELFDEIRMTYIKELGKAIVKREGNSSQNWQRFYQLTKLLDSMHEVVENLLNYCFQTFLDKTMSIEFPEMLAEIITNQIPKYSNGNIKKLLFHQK
# Experiment: Glucocorticoid Receptor Binding Assay (fluorescence polarization competitor assay, Fluormone GS Far Red tracer)
# How it was run: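 Serially diluted compounds competed with the tight-binding far-red fluorescent ligand for recombinant full-length human glucocorticoid receptor plus GR-stabilizing peptide (screening buffer pH 7.4; 3 h, 22 °C, dark). Polarization (610-660 nm) gave IC50 via sigmoidal dose-response fits, and Ki was derived by Cheng-Prusoff from tracer concentration and Kd.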
row,Ki,SMILES
1,49.7 nM,"C[C@@H](c1ccc(-c2ccc(Cl)c(C(=O)O)c2)cc1Cl)[C@](O)(c1ccc(=O)n(C)c1)C(F)(F)F (stereo in doubt) [Example 170, 4,3′-Dichloro-4′-[3,3,3-trifluoro-2-hydroxy-1-methyl-2-(1-methyl-6-oxo-1,6-dihydro-pyridin-3-yl)-propyl]-biphenyl-3-carboxylic acid]"
2,3.8 nM,"CCOC(=O)c1cc(-c2ccc([C@H](C)[C@](O)(c3ccc(=O)n(C)c3)C(F)(F)F)c(Cl)c2)ccc1F (stereo in doubt) [Example 172, 3′-Chloro-4-fluoro-4′-[3,3,3-trifluoro-2-hydroxy-1-methyl-2-(1-methyl-6-oxo-1,6-dihydro-pyridin-3-yl)-propyl]-biphenyl-3-carboxylic acid ethyl ester]"
3,97.3 nM,"COc1cc(-c2ccc([C@H](C)[C@](O)(c3ccc(=O)n(C)c3)C(F)(F)F)c(Cl)c2)ccc1C(=O)O (stereo in doubt) [Example 174, 3′-Chloro-3-methoxy-4′-[3,3,3-trifluoro-2-hydroxy-1-methyl-2-(1-methyl-6-oxo-1,6-dihydro-pyridin-3-yl)-propyl]-biphenyl-4-carboxylic acid]"
4,10.4 nM,"CCn1cc([C@@](O)([C@@H](C)c2ccc(-c3ccc(F)c(C(=O)O)c3)cc2Cl)C(F)(F)F)ccc1=O (stereo in doubt) [Example 184, 3′-Chloro-4′-[2-(1-ethyl-6-oxo-1,6-dihydro-pyridin-3-yl)-3,3,3-trifluoro-2-hydroxy-1-methyl-propyl]-4-fluoro-biphenyl-3-carboxylic acid]"
5,12.1 nM,"CCn1cc([C@@](O)([C@@H](C)c2ccc(-c3ccc(C(=O)OC)c(F)c3)cc2Cl)C(F)(F)F)ccc1=O (stereo in doubt) [Example 185, 3′-Chloro-4′-[2-(1-ethyl-6-oxo-1,6-dihydropyridin-3-yl)-3,3,3-trifluoro-2-hydroxy-1-methyl-propyl]-3-fluoro-biphenyl-4-carboxylic acid methyl ester]"
6,10.3 nM,"CCOC(=O)c1cc(Oc2ccc(Cl)c([C@H](C)[C@](O)(c3ccc(=O)n(C)c3)C(F)(F)F)c2)ccc1F (stereo in doubt) [Example 193, 5-{4-Chloro-3-[3,3,3-trifluoro-2-hydroxy-1-methyl-2-(1-methyl-6-oxo-1,6-dihydro-pyridin-3-yl)-propyl]-phenoxy}-2-fluoro-benzoic acid ethyl ester]"

# The remaining lines, values behind:
row,SMILES,Ki
1,"CCOC(=O)COc1cc(Oc2ccc([C@@H](C)[C@@](O)(c3ccc(=O)n(C)c3)C(F)(F)F)c(Cl)c2)ccc1F (stereo in doubt) [Example 161, (5-{3-Chloro-4-[3,3,3-trifluoro-2-hydroxy-1-methyl-2-(1-methyl-6-oxo-1,6-dihydro-pyridin-3-yl)-propyl]-phenoxy}-2-fluoro-phenoxy)-acetic acid ethyl ester]",3.1 nM
2,"C[C@H](c1ccc(Oc2ccc(F)c(OCC(=O)O)c2)cc1Cl)[C@@](O)(c1ccc(=O)n(C)c1)C(F)(F)F (stereo in doubt) [Example 162, (5-{3-Chloro-4-[3,3,3-trifluoro-2-hydroxy-1-methyl-2-(1-methyl-6-oxo-1,6-dihydro-pyridin-3-yl)-propyl]-phenoxy}-2-fluoro-phenoxy)-acetic acid]",0.6 nM
3,"C[C@H](c1ccc(Oc2cc(C(F)(F)F)c(C(=O)O)cn2)cc1Cl)[C@@](O)(c1ccc(=O)n(C)c1)C(F)(F)F (stereo in doubt) [Example 164, 6-{3-Chloro-4-[3,3,3-trifluoro-2-hydroxy-1-methyl-2-(1-methyl-6-oxo-1,6-dihydro-pyridin-3-yl)-propyl]-phenoxy}-4-trifluoromethyl-nicotinic acid]",40.2 nM
4,"C[C@@H](c1ccc(-c2ccc(C(=O)O)c(Cl)c2)cc1Cl)[C@](O)(c1ccc(=O)n(C)c1)C(F)(F)F (stereo in doubt) [Example 169, 3,3′-Dichloro-4′-[3,3,3-trifluoro-2-hydroxy-1-methyl-2-(1-methyl-6-oxo-1,6-dihydro-pyridin-3-yl)-propyl]-biphenyl-4-carboxylic acid]",18.1 nM
5,"COC(=O)c1ccc(-c2ccc([C@H](C)[C@](O)(c3ccc(=O)n(C)c3)C(F)(F)F)c(Cl)c2)cc1OC (stereo in doubt) [Example 173, 3′-Chloro-3-methoxy-4′-[3,3,3-trifluoro-2-hydroxy-1-methyl-2-(1-methyl-6-oxo-1,6-dihydro-pyridin-3-yl)-propyl]-biphenyl-4-carboxylic acid methyl ester]",7.3 nM
6,"COC(=O)c1ccc(-c2ccc([C@H](C)[C@](O)(c3ccc(OC)nc3)C(F)(F)F)c(Cl)c2)cc1F (stereo in doubt) [Example 176, 3′-Chloro-3-fluoro-4′-[3,3,3-trifluoro-2-hydroxy-2-(6-methoxy-pyridin-3-yl)-1-methyl-propyl]-biphenyl-4-carboxylic acid methyl ester]",93.5 nM
7,"COC(=O)c1ccc(-c2ccc([C@H](C)[C@](O)(c3ccc(OC)nc3)C(F)(F)F)c(Cl)c2)cc1Cl (stereo in doubt) [Example 178, 3,3′-Dichloro-4′-[3,3,3-trifluoro-2-hydroxy-2-(6-methoxy-pyridin-3-yl)-1-methyl-propyl]-biphenyl-4-carboxylic acid methyl ester]",72.1 nM
8,"CCOC(=O)c1cc(-c2ccc([C@H](C)[C@](O)(c3ccc(OC)nc3)C(F)(F)F)c(Cl)c2)ccc1Cl (stereo in doubt) [Example 180, 4,3′-Dichloro-4′-[3,3,3-trifluoro-2-hydroxy-2-(6-methoxy-pyridin-3-yl)-1-methyl-propyl]-biphenyl-3-carboxylic acid ethyl ester]",38.4 nM
9,"CCn1cc([C@@](O)([C@@H](C)c2ccc(-c3ccc(C(=O)OC)c(OC)c3)cc2Cl)C(F)(F)F)ccc1=O (stereo in doubt) [Example 187, 3′-Chloro-4′-[2-(1-ethyl-6-oxo-1,6-dihydro-pyridin-3-yl)-3,3,3-trifluoro-2-hydroxy-1-methyl-propyl]-3-methoxy-biphenyl-4-carboxylic acid methyl ester]",7.4 nM
10,"CCn1cc([C@@](O)([C@@H](C)c2ccc(-c3ccc(C(=O)O)c(OC)c3)cc2Cl)C(F)(F)F)ccc1=O (stereo in doubt) [Example 188, 3′-Chloro-4′-[2-(1-ethyl-6-oxo-1,6-dihydro-pyridin-3-yl)-3,3,3-trifluoro-2-hydroxy-1-methyl-propyl]-3-methoxy-biphenyl-4-carboxylic acid]",98.7 nM
11,"C[C@@H](c1cc(Oc2ccc(C(=O)O)c(Cl)c2)ccc1Cl)[C@](O)(c1ccc(=O)n(C)c1)C(F)(F)F (stereo in doubt) [Example 190, 2-Chloro-4-{4-chloro-3-[3,3,3-trifluoro-2-hydroxy-1-methyl-2-(1-methyl-6-oxo-1,6-dihydro-pyridin-3-yl)-propyl]-phenoxy}-benzoic acid]",51.4 nM
12,"C[C@@H](c1cc(Oc2ccc(F)c(C(=O)O)c2)ccc1Cl)[C@](O)(c1ccc(=O)n(C)c1)C(F)(F)F (stereo in doubt) [Example 194, 5-{4-Chloro-3-[3,3,3-trifluoro-2-hydroxy-1-methyl-2-(1-methyl-6-oxo-1,6-dihydro-pyridin-3-yl)-propyl]-phenoxy}-2-fluoro-benzoic acid]",32.3 nM
